Measurements published in patent publication US10765662B2, “Mono- or di-substituted indole derivatives as dengue viral replication inhibitors” (Janssen Pharmaceuticals, Inc., priority 2015, dated 2020).

Legend:
DENV-4 strain H241 = test: Tetravalent RT-qPCR assay Protocol A, serotype 4 H241; assay type: cell-based; conditions: Dengue virus, DENV4, Vero, 72 h
Experimental: (§1) The antiviral activity of the compounds of the invention was tested against DENV-1 strain TC974#666 (NCPV), DENV-2 strain 16681, DENV-3 strain H87 (NCPV) and DENV-4 strains H241 (NCPV) and EDEN (SG/06K2270DK1/2005; GenBank accession number QG398256) in a RT-qPCR assay. Therefore, Vero cells were infected with either DENV-1, or -2, or -3, or -4 in the presence or absence of test compounds. At day 3 post-infection, the cells were lysed and cell lysates were used to prepare cDNA of both a viral target (the 3′UTR of DENV; Table 2) and a cellular reference gene (β-actin, Table 2). Subsequently, a duplex real time PCR was performed on a Lightcycler480 instrument. The generated Cp value is inversely proportional to the amount of RNA expression of these targets. Inhibition of DENV replication by a test compound results in a shift of Cp's for the 3′UTR gene. On the other hand, if a test compound is toxic to the cells, a similar effect on β-actin expression will be observed. The comparative ΔΔCp method is used to calculate EC50, which is based on the relative gene expression of the target gene (3′UTR) normalized with the cellular housekeeping gene (β-actin). In addition, CC50 values are determined based on the Cp values acquired for the housekeeping gene β-actin.
(§2) The culture medium consisted of minimal essential medium supplemented with 2% of heat-inactivated fetal calf serum, 0.04% gentamycin (50 mg/mL) and 2 mM of L-glutamine. Vero cells, obtained from ECACC, were suspended in culture medium and 75 μL/well was added in 96-well plates (10000 cells/well), which already contain the antiviral compounds. […] In addition, each plate contains wells which are assigned as virus controls (containing cells and virus in the absence of compound) and cell controls (containing cells in the absence of virus and compound). Once the cells were added in the plates, the plates were incubated in a fully humidified incubator (37° C., 5% CO2) until the next day. Dengue viruses serotype-1, 2, 3 and 4 were diluted in order to obtain a Cp of ˜22-24 in the assay. Therefore, 25 μL of virus suspension, was added to all the wells containing test compound and to the wells assigned as virus control. In parallel, 25 μL of culture medium was added to the cell controls. Next, the plates were incubated for 3 days in a fully humidified incubator (37° C., 5% CO2). After 3 days, the supernatant was removed from the wells and the cells were washed twice with ice-cold PBS (˜100 μL). The cell pellets within the 96-well plates were stored at −80° C. for at least 1 day. Next, RNA was extracted using the Cells-to-CT™ lysis kit, according to the manufacturer's guideline (Life Technologies). The cell lysates can be stored at −80° C. or immediately used in the reverse transcription step.
(§3) In preparation of the reverse transcription step, mix A (table 3A) was prepared and 7.57 μL/well was dispensed in a 96-well plate. After addition of 5 μL of the cell lysates, a five minute denaturation step at 75° C. was performed (table 3B). Afterwards, 7.43 μL of mix B was added (table 3C) and the reverse transcription step was initiated (table 3D) to generate cDNA.
(§4) Finally, a RT-qPCR mix was prepared, mix C (table 4A), and 22.02 μL/well was dispensed in 96-well LightCycler qPCR plates to which 3 μL of cDNA was added and the qPCR was performed according to the conditions in table 4B on a LightCycler 480.
(§5) Using the LightCycler software and an in-house LIMS system, dose response curves for each compound were calculated and the half maximal effective concentration (EC50) and the half maximal cytotoxic concentration (CC50) were determined (Tables 5-8).

DENV-2 strain 16681 = test: Tetravalent RT-qPCR assay Protocol A, serotype 2; assay type: cell-based; conditions: Dengue virus, DENV2, 72 h; RT-qPCR serotype 2 16681, Vero cells, day 3
Experimental: as §1, §2, §3, §4, §5

DENV-3 strain H87 = test: Tetravalent RT-qPCR assay Protocol A, serotype 3; assay type: cell-based; conditions: Dengue virus, DENV3, 72 h; RT-qPCR serotype 3 H87, Vero cells, day 3
Experimental: as §1, §2, §3, §4, §5

Vero cells = test: in vitro; assay type: cell-based; conditions: African green monkey
Experimental: (§6) In parallel, the toxicity of the compounds was assessed on the same plates. Once the read-out for the eGFP signal was done, 40 μL of ATPlite, a cell viability stain, was added to all wells of the 384-well plates. ATP is present in all metabolically active cells and the concentration declines very rapidly when the cells undergo necrosis or apoptosis. The ATPLite assay system is based on the production of light caused by the reaction of ATP with added luciferase and D-luciferin. The plates were incubated for 10 minutes at room temperature. Next, the plates were measured on a ViewLux. The half maximal cytotoxic concentration (CC50) was also determined, defined as the concentration required to reduce the luminescent signal by 50% compared to that of the cell control wells. Finally, the selectivity index (SI) was determined for the compounds, which was calculated as followed: SI=CC50/EC50.

[1] = system: DENV-4 strain EDEN (SG/06K2270DK1/2005); test: Tetravalent RT-qPCR assay Protocol A, serotype 4 EDEN; assay type: cell-based; conditions: Dengue virus, DENV4, 72 h; RT-qPCR serotype 4 EDEN, Vero cells, day 3
Experimental: as §1, §2, §3, §4, §5

in vitro [2] = assay type: cell-based; conditions: African green monkey
Experimental: as §1, §2, §5

DENV-1 strain TC974#666 = test: Tetravalent RT-qPCR assay Protocol A, serotype 1; assay type: cell-based; conditions: Dengue virus, DENV1, 72 h; RT-qPCR serotype 1 TC974#666, Vero cells, day 3
Experimental: as §1, §2, §3, §4, §5

[3] = system: DENV-2 16681 strain labeled with enhanced green fluorescent protein; test: DENV-2 antiviral assay (eGFP fluorescence read-out in Vero cells); assay type: cell-based, Dengue virus; conditions: DENV-2 16681 eGFP, MOI 0.5, 3 days
Experimental: The antiviral activity of all the compounds of the invention was tested against the DENV-2 16681 strain which was labeled with enhanced green fluorescent protein (eGPF). The culture medium consists of minimal essential medium supplemented with 2% of heat-inactivated fetal calf serum, 0.04% gentamycin (50 mg/mL) and 2 mM of L-glutamine. Vero cells, obtained from ECACC, were suspended in culture medium and 25 μL was added to 384-well plates (2500 cells/well), which already contain the antiviral compounds. Typically, these plates contain a 5-fold serial dilution of 9 dilution steps of the test compound at 200 times the final concentration in 100% DMSO (200 nL). […] Finally, each plate contains wells which are assigned as virus controls (containing cells and virus in the absence of compound), cell controls (containing cells in the absence of virus and compound) and medium controls (containing medium in the absence of cells, virus and compounds). To the wells assigned as medium control, 25 μL of culture medium was added instead of Vero cells. Once the cells were added to the plates, the plates were incubated for 30 minutes at room temperature to allow the cells to distribute evenly within the wells. Next, the plates were incubated in a fully humidified incubator (37° C., 5% CO2) until the next day. Then, DENV-2 strain 16681, labeled with eGFP, was added at a multiplicity of infection (MOI) of 0.5. Therefore, 15 μL of virus suspension was added to all the wells containing test compound and to the wells assigned as virus control. In parallel, 15 μL of culture medium was added to the medium and cell controls. Next, the plates were incubated for 3 days in a fully humidified incubator (37° C., 5% CO2). At the day of the read out, the eGFP fluorescence was measured using an automated fluorescence microscope at 488 nm (blue laser). Using an in-house LIMS system, inhibition dose response curves for each compound were calculated and the half maximal effective concentration (EC50) was determined. Therefore, the percent inhibition (I) for every test concentration is calculated using the following formula: I=100*([…])/(SVC−SCC); ST, SCC and SVC are the amount of eGFP signal in the test compound, cell control and virus control wells, respectively. The EC50 represents the concentration of a compound at which the virus replication is inhibited with 50%, as measured by a 50% reduction of the eGFP fluorescent intensity compared to the virus control. The EC50 is calculated using linear interpolation (Table 1).

in vitro [4] = assay type: cell-based; conditions: African green monkey, CC50
Experimental: as §6

[5] = Dengue virus, DENV2, Vero, 72 h

SMILES | EC50 (DENV-4 strain H241) | EC50 (DENV-2 strain 16681) | EC50 (DENV-3 strain H87) | CC50 (Vero cells) | EC50 [1] | CC50 at 3 days (in vitro [2]) | EC50 (DENV-1 strain TC974#666) | EC50 [3] | CC50 (in vitro [4]) | melting point | EC50 [3, 5]
COc1cc(NC(C(=O)c2c[nH]c3cc(Cl)ccc23)c2ccc(Cl)cc2OCCO)cc(S(C)(=O)=O)c1 (single isomer, unassigned) [Compound 2A, 1-(6-chloro-1H-indol-3-yl)-2-(4-chloro-2-(2-hydroxyethoxy)phenyl)-2-((3-methoxy-5-(methylsulfonyl)phenyl)amino)ethanone] | 74 nM | 0.14 nM | 18 nM | 3.4 µM | 1.3 nM | > 2500 nM | 1.6 nM | 0.11 nM |  |  | 
COc1cc(NC(C(=O)c2c[nH]c3c(C)c(Cl)ccc23)c2ccc(Cl)cc2OCCO)cc(S(C)(=O)=O)c1 (single isomer, unassigned) [Compound 5B, 2-(4-chloro-2-(2-hydroxyethoxy)phenyl)-1-(6-chloro-7-methyl-1H-indol-3-yl)-2-((3-methoxy-5-(methylsulfonyl)phenyl)amino)ethanone] | 74 nM | 0.065 nM | 12 nM | 3.4 µM | 1.1 nM | > 2500 nM | 1.6 nM | 0.066 nM |  |  | 
COc1cc(NC(C(=O)c2c[nH]c3cc(OC)ccc23)c2ccc(Cl)cc2OCCO)cc(S(C)(=O)=O)c1 (single isomer, unassigned) [Compound 3A, 2-(4-chloro-2-(2-hydroxyethoxy)phenyl)-1-(6-methoxy-1H-indol-3-yl)-2-((3-methoxy-5-(methylsulfonyl)phenyl)amino)ethanone] | 110 nM | 0.4 nM | 42 nM | 5.2 µM | 3.1 nM | 5800 nM | 4.2 nM | 0.32 nM |  |  | 
COc1cc(NC(C(=O)c2c[nH]c3cc(F)c(F)cc23)c2ccc(Cl)cc2OCCO)cc(S(C)(=O)=O)c1 (single isomer, unassigned) [Compound 7A, 2-(4-chloro-2-(2-hydroxyethoxy)phenyl)-1-(5,6-difluoro-1H-indol-3-yl)-2-((3-methoxy-5-(methylsulfonyl)phenyl)amino)ethanone] | 64 nM | 0.21 nM | 11 nM | 2.7 µM | 0.64 nM | 2900 nM | 0.97 nM | 0.22 nM |  |  | 
COc1cc(NC(C(=O)c2c[nH]c3cc(OC)c(C)cc23)c2ccc(Cl)cc2OCCO)cc(S(C)(=O)=O)c1 (single isomer, unassigned) [Compound 6A, 2-(4-chloro-2-(2-hydroxyethoxy)phenyl)-2-((3-methoxy-5-(methylsulfonyl)phenyl)amino)-1-(6-methoxy-5-methyl-1H-indol-3-yl)ethanone] | 53 nM | 0.21 nM | 17 nM |  | 1 nM | 4900 nM | 1.6 nM | 0.13 nM | 3.8 µM |  | 
COc1cc(NC(C(=O)c2c[nH]c3cc(Cl)ccc23)c2ccc(Cl)cc2OCCO)cc(S(C)(=O)=O)c1 (racemic) [Compound 2, 1-(6-chloro-1H-indol-3-yl)-2-(4-chloro-2-(2-hydroxyethoxy)phenyl)-2-((3-methoxy-5-(methylsulfonyl)phenyl)amino)ethanone] |  |  |  |  |  |  |  |  | 4.2 µM | 121 °C | 0.27 nM
COc1cc(NC(C(=O)c2c[nH]c3c(C)c(F)ccc23)c2ccc(Cl)cc2OCCO)cc(S(C)(=O)=O)c1 (single isomer, unassigned) [Compound 4A, 2-(4-chloro-2-(2-hydroxyethoxy)phenyl)-1-(6-fluoro-7-methyl-1H-indol-3-yl)-2-((3-methoxy-5-(methylsulfonyl)phenyl)amino)ethanone] | 78 nM | 0.16 nM | 18 nM |  | 1.4 nM | > 2500 nM | 1.7 nM | 0.13 nM | 3 µM |  | 
COc1cc(NC(C(=O)c2c[nH]c3cc(OC)c(OC(F)(F)F)cc23)c2ccc(Cl)cc2OCCO)cc(S(C)(=O)=O)c1 (racemic) [Compound 11, 2-(4-chloro-2-(2-hydroxyethoxy)phenyl)-2-((3-methoxy-5-(methylsulfonyl)phenyl)amino)-1-(6-methoxy-5-(trifluoromethoxy)-1H-indol-3-yl)ethanone] |  |  |  |  |  |  |  |  | > 2.5 µM | 212 °C | 0.2 nM
COc1cc(NC(C(=O)c2c[nH]c3c(C)c(Cl)ccc23)c2ccc(Cl)cc2OCCO)cc(S(C)(=O)=O)c1 (racemic) [Compound 5, 2-(4-chloro-2-(2-hydroxyethoxy)phenyl)-1-(6-chloro-7-methyl-1H-indol-3-yl)-2-((3-methoxy-5-(methylsulfonyl)phenyl)amino)ethanone] |  |  |  |  |  |  |  |  | 4.3 µM | 206 °C | 0.1 nM
